Laboratory results published in patent US8637523B2, “Compounds for the reduction of beta-amyloid production” (Bristol-Myers Squibb Company, priority 2010, dated 2014).
Read-outs that look alike come from different tables or passages of the source.

Tested on: Aβ42
Test: Cellular assay for inhibition of Aβ1-42 production (H4 APP751 SWE clone 8.20)
Format: cell-based
Settings: H4 APP751 SWE clone 8.20 cells, 19 h incubation
How it was run: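 Compound-treated cells were incubated 19 h at 37 °C in 5% CO2. Aβ42 in the cell plate was detected overnight at 4 °C with an Aβ42 neoepitope antibody (565, Wallac-labelled, 0.8 ng/well) plus N-terminal antibody 26D6 (APC, 75 ng/well) in 40 mM Tris-HCl pH 7.4, 0.2% BSA. IC50s came from curve fitting.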

[1] = read-out: Activity Rating (Aβ42 cellular IC50), class symbol
[2] = unit inferred, read-out: Activity Rating (Aβ42 cellular IC50), numeric value
[3] = 19 h, read-out: Activity Rating (Aβ42 cellular IC50), class symbol
[4] = 19 h, unit inferred, read-out: Activity Rating (Aβ42 cellular IC50), numeric value

Row | Compound | IC50 [1] [nM] | IC50 [3] [nM] | also measured
1 | CN1CC=CCOc2cc(ccc2-n2cnc(Cl)c2)Nc2nc3c(c1n2)CCC3c1ccccc1 (centres unmarked) [Example 4B, (11E)-7-(4-chloro-1H-imidazol-1-yl)-14-methyl-18-phenyl-10,13,14,16,17,18-hexahydro-15,2-(azeno)-8,4-(metheno)cyclopenta[h][1,6,10,12]oxatriazacycloheptadecine] | 10 to 100 |  | 
2 | (11Z)-18-(2,4-difluorophenyl)-7-(5-methyl-1H-1,2,4-triazol-1-yl)-10,13,14,16,17,18-hexahydro-15,2-(azeno)-8,4-(metheno)cyclopenta[h][1,6,10,12]oxatriazacycloheptadecine [Example 53B] |  |  | IC50 [2]: 17 nM
3 | Cc1ncn(-c2ccc3cc2OCCCN(C)c2nc(nc4c2CCC4c2ccc(F)cc2)N3)n1 (centres unmarked) [Example 65B, 13-methyl-7-(3-methyl-1H-1,2,4-triazol-1-yl)-17-(4-fluorophenyl)-11,12,13,15,16,17-hexahydro-10H-14,2-(azeno)-8,4-(metheno)cyclopenta[g][1,5,9,11]oxatriazacyclohexadecine] |  | 10 to 100 | 
4 | CN1CCCOc2cc(ccc2C#N)Nc2nc3c(c1n2)CCC3c1ccc(F)cc1F (centres unmarked) [Example 35A, 7-cyano-17-(2,4-difluorophenyl)-13-methyl-11,12,13,15,16,17-hexahydro-10H-14,2-(azeno)-8,4-(metheno)cyclopenta[g][1,5,9,11]oxatriazacyclohexadecine] |  | 10 to 100 | 
5 | CN1C/C=C\COc2cc(ccc2C#N)Nc2nc3c(c1n2)CCC3c1ccc(F)cc1F (centres unmarked) [Example 28A, (11Z)-7-cyano-18-(2,4-difluorophenyl)-14-methyl-10,13,14,16,17,18-hexahydro-15,2-(azeno)-8,4-(metheno)cyclopenta[h][1,6,10,12]oxatriazacycloheptadecine] |  |  | IC50 [4]: 13 nM
6 | (11Z)-18-(2,4-difluorophenyl)-7-(3-methyl-1H-1,2,4-triazol-1-yl)-10,13,14,16,17,18-hexahydro-15,2-(azeno)-8,4-(metheno)cyclopenta[h][1,6,10,12]oxatriazacycloheptadecine [Example 51B] | 10 to 100 |  | 
7 | Clc1cn(-c2ccc3cc2OCC=CCCc2nc(nc4c2CCC4c2ccccc2)N3)cn1 (centres unmarked) [Example 17B, (11E)-7-(4-chloro-1H-imidazol-1-yl)-18-phenyl-10,13,14,16,17,18-hexahydro-15,2-(azeno)-8,4-(metheno)cyclopenta[h][1,10,12]oxadiazacycloheptadecine] | 10 to 100 |  | 
8 | Clc1cn(-c2ccc3cc2OCCCCCNc2nc(nc4c2CCC4c2ccccc2)N3)cn1 (centres unmarked) [Example 11A, 7-(4-chloro-1H-imidazol-1-yl)-19-phenyl-3,10,11,12,13,14,15,17,18,19-decahydro-2,16-(azeno)-8,4-(metheno)cyclopenta[f][1,7,9,13]oxatriazacyclooctadecine] |  |  | IC50 [4]: 3.8 nM
9 | Fc1ccc(C2CCc3c4nc(nc32)Nc2ccc(-n3cnc(Cl)c3)c(c2)OCC=CCN4)c(F)c1 (centres unmarked) [Example 15B, (11E)-7-(4-chloro-1H-imidazol-1-yl)-18-(2,4-difluorophenyl)-10,13,14,16,17,18-hexahydro-15,2-(azeno)-8,4-(metheno)cyclopenta[h][1,6,10,12]oxatriazacycloheptadecine] |  |  | IC50 [2]: 23 nM
10 | Cc1ncn(-c2ccc3cc2OCCCCCc2nc(nc4c2CCC4c2ccccc2)N3)n1 (centres unmarked) [Example 62A, 7-(3-methyl-1H-1,2,4-triazol-1-yl)-18-phenyl-10,11,12,13,14,16,17,18-octahydro-15,2-(azeno)-8,4-(metheno)cyclopenta[h][1,10,12]oxadiazacycloheptadecine] |  | < 10 | 
11 | Cc1ncn(-c2ccc3cc2OC/C=C\CN(C)c2nc(nc4c2CCC4c2ccc(F)cc2F)N3)n1 (centres unmarked) [Example 57B, (11Z)-18-(2,4-difluorophenyl)-14-methyl-7-(3-methyl-1H-1,2,4-triazol-1-yl)-10,13,14,16,17,18-hexahydro-15,2-(azeno)-8,4-(metheno)cyclopenta[h][1,6,10,12]oxatriazacycloheptadecine] |  | 10 to 100 | 
12 | N#Cc1ccc2cc1OCCCCCc1nc(nc3c1CCC3c1ccccc1)N2 (centres unmarked) [Example 38B, 7-cyano-18-phenyl-10,11,12,13,14,16,17,18-octahydro-15,2-(azeno)-8,4-(metheno)cyclopenta[h][1,10,12]oxadiazacycloheptadecine] |  | 100 to 1000 | 
13 | CN1CC=CCOc2cc(ccc2C#N)Nc2nc3c(c1n2)CCC3c1ccccc1 (centres unmarked) [Example 30A, (11E)-7-cyano-14-methyl-18-phenyl-10,13,14,16,17,18-hexahydro-15,2-(azeno)-8,4-(metheno)cyclopenta[h][1,6,10,12]oxatriazacycloheptadecine] | 10 to 100 |  | 
14 | Cc1ncn(-c2ccc3cc2OCCCNc2nc(nc4c2CCC4c2ccc(F)cc2F)N3)n1 (centres unmarked) [Example 63A, 17-(2,4-difluorophenyl)-7-(3-methyl-1H-1,2,4-triazol-1-yl)-11,12,13,15,16,17-hexahydro-10H-14,2-(azeno)-8,4-(metheno)cyclopenta[g][1,5,9,11]oxatriazacyclohexadecine] |  | < 10 | 
15 | Cc1ncnn1-c1ccc2cc1OCC=CCNc1nc(nc3c1CCC3c1ccc(F)cc1F)N2 (centres unmarked) [Example 54B, (11E)-18-(2,4-difluorophenyl)-7-(5-methyl-1H-1,2,4-triazol-1-yl)-10,13,14,16,17,18-hexahydro-15,2-(azeno)-8,4-(metheno)cyclopenta[h][1,6,10,12]oxatriazacycloheptadecine] | 10 to 100 |  | 
16 | N#Cc1ccc2cc1OCCCNc1nc(nc3c1CCC3c1ccc(F)cc1F)N2 (centres unmarked) [Example 33B, 7-cyano-17-(2,4-difluorophenyl)-11,12,13,15,16,17-hexahydro-10H-14,2-(azeno)-8,4-(metheno)cyclopenta[g][1,5,9,14]oxatriazacyclohexadecine] |  |  | IC50 [4]: 37 nM
17 | CN1Cc2c3nc(nc2C(c2ccc(F)cc2)C1)Nc1ccc(C#N)c(c1)OCCCCN3 (racemic) [Example 71, 7-cyano-19-(4-fluorophenyl)-17-methyl-11, 12, 13,14,16,17,18,19-octahydro-10H-15,2-(azeno)-8,4-(metheno)pyrido[3,4-h][1,6,10,12]oxatriazacycloheptadecine] |  | 10 to 100 | 
18 | Cc1ncn(-c2ccc3cc2OCCNCCNc2nc(nc4c2CCC4c2ccc(F)cc2)N3)n1 (single isomer, unassigned) [Example 55B, 19-(4-fluorophenyl)-7-(3-methyl-1H-1,2,4-triazol-1-yl)-11,12,13,14,15,17,18,19-octahydro-10H-16,2-(azeno)-8,4-(metheno)cyclopenta[i][1,4,7,11,13]oxatetraazacyclooctadecine] |  | 10 to 100 | 
19 | CN1CC=CCOc2cc(ccc2C#N)Nc2nc3c(c1n2)CCC3c1ccccc1 (centres unmarked) [Example 29B, (11Z)-7-cyano-14-methyl-18-phenyl-10,13,14,16,17,18-hexahydro-15,2-(azeno)-8,4-(metheno)cyclopenta[h][1,6,10,12]oxatriazacycloheptadecine] | 100 to 1000 |  | 
20 | Cc1ncn(-c2ccc3cc2OCCCNc2nc(nc4c2CCC4c2ccc(F)cc2F)N3)n1 (centres unmarked) [Example 63B, 17-(2,4-difluorophenyl)-7-(3-methyl-1H-1,2,4-triazol-1-yl)-11,12,13,15,16,17-hexahydro-10H-14,2-(azeno)-8,4-(metheno)cyclopenta[g][1,5,9,11]oxatriazacyclohexadecine] |  |  | IC50 [4]: 25 nM
21 | CN1C/C=C\COc2cc(ccc2-n2cnc(Cl)c2)Nc2nc3c(c1n2)CCC3c1ccc(F)cc1F (centres unmarked) [Example 18B, (11Z)-7-(4-chloro-1H-imidazol-1-yl)-18-(2,4-difluorophenyl)-14-methyl-10,13,14,16,17,18-hexahydro-15,2-(azeno)-8,4-(metheno)cyclopenta[h][1,6,10,12]oxatriazacycloheptadecine] |  |  | IC50 [4]: 47 nM
22 | Clc1cn(-c2ccc3cc2OCCCCNc2nc(nc4c2CCC4c2ccccc2)N3)cn1 (centres unmarked) [Example 12A, 7-(4-chloro-1H-imidazol-1-yl)-18-phenyl-10,11,12,13,14,16,17,18-octahydro-15,2-(azeno)-8,4-(metheno)cyclopenta[h][1,6,10,12]oxatriazacycloheptadecine] |  | < 10 | 
23 | Cc1ncnn1-c1ccc2cc1OCC=CCNc1nc(nc3c1CCC3c1ccccc1)N2 (centres unmarked) [Example 42A, (11Z)-7-(5-methyl-1H-1,2,4-triazol-1-yl)-18-phenyl-10,13,14,16,17,18-hexahydro-15,2-(azeno)-8,4-(metheno)cyclopenta[h][1,6,10,12]oxatriazacycloheptadecine] |  |  | IC50 [2]: 6.6 nM
24 | CN1CCCCOc2cc(ccc2C#N)Nc2nc3c(c1n2)CCC3c1ccc(F)cc1F (single isomer, unassigned) [Example 32B, 7-cyano-18-(2,4-difluorophenyl)-14-methyl-10,11,12,13,14,16,17,18-octahydro-15,2-(azeno)-8,4-(metheno)cyclopenta[h][1,6,10,12]oxatriazacycloheptadecine] | 100 to 1000 |  | 
25 | Cc1ncn(-c2ccc3cc2OC/C=C\CN(C)c2nc(nc4c2CCC4c2ccc(F)cc2F)N3)n1 (centres unmarked) [Example 57A, (11Z)-18-(2,4-difluorophenyl)-14-methyl-7-(3-methyl-1H-1,2,4-triazol-1-yl)-10,13,14,16,17,18-hexahydro-15,2-(azeno)-8,4-(metheno)cyclopenta[h][1,6,10,12]oxatriazacycloheptadecine] |  |  | IC50 [4]: 5.5 nM
26 | Fc1ccc(C2CCc3c4nc(nc32)Nc2ccc(-n3cnc(Cl)c3)c(c2)OCC=CCN4)c(F)c1 (centres unmarked) [Example 14A, (11Z)-7-(4-chloro-1H-imidazol-1-yl)-18-(2,4-difluorophenyl)-10,13,14,16,17,18-hexahydro-15,2-(azeno)-8,4-(metheno)cyclopenta[h][1,6,10,12]oxatriazacycloheptadecine] | < 10 |  | 
